Reference: ChEMBL document CHEMBL1649096, “Study of kaempferol glycoside as an insulin mimic reveals glycon to be the key active structure” (2011)
Active and inactive are the calls of the source. The calls are words filed in the database; no cut-off is given here.

Legend:
L6 [1] = assay: Insulin mimetic activity in rat L6 cells assessed as stimulation of 2-deoxyglucose uptake at 1 mM by enzymatic method relative to untreated control; format: functional, cell-based
L6 [2] = assay: Insulin mimetic activity in rat L6 cells assessed as stimulation of 2-deoxyglucose uptake at 1 nM by enzymatic method relative to untreated control; format: functional
L6 [3] = assay: Insulin mimetic activity in rat L6 cells assessed as stimulation of 2-deoxyglucose uptake at 0.1 nM by enzymatic method relative to untreated control; format: functional

SMILES	Activity (L6 [1])	Activity (L6 [2])	Activity (L6 [3]) [%]	Activity (L6 [3]; filed as antagonist)
C[C@H]1O[C@H](O[C@H]2[C@H](Oc3c(-c4ccc(O)cc4)oc4cc(O)cc(O)c4c3=O)O[C@H](CO)[C@@H](O)[C@@H]2O)[C@@H](O)[C@@H](O)[C@@H]1O	inactive	200%		
C[C@@H]1O[C@@H](O[C@H]2C(O)O[C@H](CO)[C@@H](O)[C@@H]2O)[C@H](O)[C@H](O)[C@H]1O (some centres not stated) [NEOHESPERIDOSE]		200%	200	
O=c1c(O)c(-c2ccc(O)cc2)oc2cc(O)cc(O)c12		inactive		
O=c1c(O[C@@H]2O[C@H](CO)[C@@H](O)[C@H](O)[C@H]2O)c(-c2ccc(O)cc2)oc2cc(O)cc(O)c12		inactive		Irreversible Antagonist
